This is an account of results in PubChem BioAssay (NCI).

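Protocol summary: plate cells (96-well), add compound at 5 concentrations, incubate 48 h, interpolate endpoints linearly. TGI denotes the concentration required for complete inhibition of growth.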 Some results are limits rather than exact numbers.

What all share (experiment): NCI tumour cell line growth inhibition, 48 h
The test system of experiment [1] is 786-0 renal.
The test system of experiment [2] is DU-145 prostate.
Experiment [3] relates to HCT-116 colon.
In experiment [4] the test system is HOP-62 NSCLC.
In experiment [5] the test system is HT29 colon.
Experiment [6] deals with KM12 colon.
In experiment [7] the test system is LOX IMVI melanoma.
The test system of experiment [8] is M14 melanoma.
Experiment [9] concerns MDA-MB-231 breast.
In experiment [10] the test system is MDA-N.
Experiment [11] relates to NCI-H226 lung.
The test system of experiment [12] is NCI-H522 lung.
Experiment [13] deals with OVCAR-3 ovarian.
The subject of experiment [14] is RXF 393 renal.
For experiment [15], the system named is SNB-19 CNS.
Experiment [16] deals with SW-620 colon.
For experiment [17], the system named is TK-10 renal.
Experiment [18] concerns UACC-62 melanoma.
For experiment [19], the system named is UO-31 renal.

Turning to `C/C(=N/c1[nH]c(=O)cc2c1C(=O)CC2)N(C)C`, the TGI in experiment [1], in experiment [2], in experiment [3], in experiment [4], in [5] and in experiment [6] was greater than 200 µM throughout. In addition, the TGI in experiment [7], in experiment [8], in [9], in [10], in experiment [11] and in [12] was greater than 200 µM throughout. Moreover, the TGI in experiment [13], in experiment [14], in experiment [15], in experiment [16], in [17] and in [18] was greater than 200 µM in each case. Also, the TGI in experiment [19] was greater than 200 µM.
On to `COc1cc([C@H]2CC(=O)C[C@@H](c3cc(OC)c(OC)c(OC)c3)C23C(=O)c2ccccc2C3=O)cc(OC)c1OC`, for which the TGI in [1], in experiment [2], in experiment [3], in experiment [4], in experiment [5] and in [6] was greater than 100 µM in each case. The TGI in experiment [7], in experiment [8], in experiment [9], in experiment [10], in experiment [11] and in experiment [12] was greater than 100 µM in each case. The TGI in [13], in [14], in experiment [15], in experiment [16], in experiment [17] and in experiment [18] was greater than 100 µM in each case. Also, in [19], the TGI was greater than 100 µM.
Consider `COc1cc(C2S/C(=C/c3ccccc3)C(=O)N2c2cc(Cl)c(Cl)cc2Cl)cc(OC)c1OC` (stereo not drawn), for which the TGI in [1] was greater than 100 µM; in experiment [2], greater than 100 µM; in [3] it was greater than 75 µM; in [4], greater than 100 µM; in experiment [5] it was greater than 100 µM; in experiment [6], greater than 78.3 µM. For the same molecule, the TGI in [7] was greater than 79.3 µM; in experiment [8], greater than 100 µM; in experiment [9], greater than 100 µM; in [10], greater than 100 µM; in experiment [11], greater than 100 µM; in [12], greater than 66.5 µM. Also, the TGI in experiment [13], in experiment [14], in experiment [15], in experiment [16], in experiment [17] and in experiment [18] was greater than 100 µM each time. This molecule gave a TGI in experiment [19] greater than 100 µM.
Regarding `COc1c(O)c(O)c2c(c1O)C(=O)c1cc(C)cc(O)c1C2=O`, the TGI in [1] was greater than 100 µM; in experiment [2], greater than 100 µM; in experiment [3], greater than 100 µM; in experiment [4], greater than 100 µM; in [5], greater than 85.4 µM; in experiment [6], greater than 100 µM. In addition, the TGI was greater than 100 µM in experiment [7]; greater than 100 µM in [8]; 42 µM in [9]; greater than 100 µM in [10]; greater than 93.5 µM in experiment [11]; 48.1 µM in [12]. Also, the TGI is greater than 100 µM in [13]; greater than 100 µM in experiment [14]; greater than 100 µM in experiment [15]; greater than 100 µM in experiment [16]; greater than 100 µM in experiment [17]; 54.5 µM in [18]. This molecule also yielded a TGI in experiment [19] greater than 100 µM.
`CCCC(=O)NC(C(=O)OCC)(N1CCOCC1)C(F)(F)F` (stereo not drawn): the TGI in experiment [1], in [2], in experiment [3], in [4], in [5] and in experiment [6] was greater than 100 µM in each case. In addition, the TGI in experiment [7], in [8], in experiment [9], in [10], in experiment [11] and in [12] was greater than 100 µM in each case. The TGI in [13], in experiment [14], in [15], in experiment [16], in experiment [17] and in experiment [18] was greater than 100 µM each time. Also, in experiment [19], the TGI is greater than 100 µM.
As for `N#C/C(C(=S)Nc1ccccc1)=C(/N)N1CCCC1`, the TGI in experiment [1], in experiment [2], in experiment [3], in experiment [4], in experiment [5] and in [6] was greater than 100 µM in each case. Besides, the TGI in [7], in [8], in experiment [9], in experiment [10], in experiment [11] and in [12] was greater than 100 µM in each case. Besides, the TGI in experiment [13], in experiment [14], in [15], in [16], in [17] and in experiment [18] was greater than 100 µM throughout. In experiment [19], the TGI was greater than 100 µM.
For the molecule `CC1(C)CCCCCCC2CC2CCCCCC(C)(C)C1=O` (stereo not drawn), the TGI in [1], in [2], in experiment [3], in [4], in experiment [5] and in [6] was greater than 100 µM throughout. The TGI was 63.6 µM in experiment [7]; greater than 100 µM in experiment [8]; greater than 100 µM in experiment [9]; greater than 100 µM in experiment [10]; greater than 100 µM in experiment [11]; greater than 100 µM in experiment [12]. Also, the TGI in [13], in experiment [14], in [15], in experiment [16], in experiment [17] and in experiment [18] was greater than 100 µM each time. The molecule further displayed a TGI in experiment [19] greater than 100 µM.
